Like-named read-outs stand apart in the source and are kept apart here. Where a SMILES comes first, the peptide text is derived from it.
What was measured:
S. epidermidis = assay: microbe, parasite or virus in culture; type: cell-based, Staphylococcus epidermidis
Procedure, shortened: (§1)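 Broth microdilution in MH medium: bacterial strains diluted to 2×10^6 CFU were mixed with equal volumes of peptide serially diluted twofold in MH medium.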

B. subtilis = assay: microbe, parasite or virus in culture; type: cell-based, Bacillus subtilis
Procedure, shortened: as §1

MDREC 1229 [1] = assay: microbe, parasite or virus in culture; type: cell-based, Escherichia coli
Procedure, shortened: as §1

E. coli [2] = assay: microbe, parasite or virus in culture; type: cell-based, Escherichia coli; conditions: 16 h
Procedure, shortened: as §1

E. coli [3] = assay: MIC of antibiotic during combined treatment with antimicrobial peptide; type: cell-based, Escherichia coli; conditions: for Antibiotic MIC, Erythromycin / Antibiotic MIC, Linezolid / Antibiotic MIC, Vancomycin: E. coli
Procedure, shortened: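 Using MH broth, we determined combination MICs by titrating the antibiotic into wells and then repeating under the reverse dilution scheme.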

MDRST 8007 = assay: Minimal inhibitory concentration (MIC), single agent; type: cell-based, Salmonella typhimurium; conditions: agent alone
Procedure, shortened: as §1

MDREC 1238 = type: cell-based, Escherichia coli
Procedure, shortened: as §1

MRSA 3114 = type: cell-based, Staphylococcus aureus; conditions: 3114
Procedure, shortened: as §1

MRSA 3126 = type: cell-based, Staphylococcus aureus; conditions: 3126
Procedure, shortened: as §1

MDRST 8009 = type: cell-based, Salmonella typhimurium; conditions: agent alone
Procedure, shortened: as §1

P. aeruginosa = assay: microbe, parasite or virus in culture; type: cell-based, Pseudomonas aeruginosa
Procedure, shortened: as §1

MDRAB 12035 [4] = assay: MIC of antimicrobial peptide during combined treatment with antibiotic; type: cell-based, Acinetobacter baumannii
Procedure, shortened: (§2)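 Broth microdilution in MH medium; strains were diluted to 2×10^6 CFU per ml before plating. Peptide was serially diluted stepwise at 2:1 starting from its MIC, and MH-diluted antibiotic was then added to determine MIC. The reversed arrangement was also tested.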

A. baumannii = assay: as above; type: cell-based, Acinetobacter baumannii
Procedure, shortened: as §2

MDRPA 2002 = type: cell-based, Pseudomonas aeruginosa
Procedure, shortened: as §1

MDRPA 2003 = type: cell-based, Pseudomonas aeruginosa
Procedure, shortened: as §1

MDRAB 12035 [5] = assay: MIC of antibiotic during combined treatment with antimicrobial peptide; type: cell-based, Acinetobacter baumannii
Procedure, shortened: as §2

MDRAB 12036 = type: cell-based, Acinetobacter baumannii
Procedure, shortened: as §1

MDREC 1229 [6] = type: cell-based, Escherichia coli
Procedure, shortened: as §2

E. coli [7] = type: cell-based, Escherichia coli; conditions: E. coli
Procedure, shortened: as §2

[8] = erythromycin 4 μg/ml (Conc./MIC 1/8)
[9] = erythromycin 8 μg/ml (Conc./MIC 1/4)
[10] = erythromycin 16 μg/ml (Conc./MIC 1/2)
[11] = erythromycin 32 μg/ml (Conc./MIC 1)
[12] = linezolid 64 μg/ml (Conc./MIC 1/8)
[13] = linezolid 512 μg/ml (Conc./MIC 1)
[14] = vancomycin 512 μg/ml (Conc./MIC 1/2)
[15] = vancomycin 1024 μg/ml (Conc./MIC 1)
[16] = peptide treatment concentration 1 μg/ml
[17] = peptide treatment concentration 2 μg/ml
[18] = peptide treatment concentration 4 μg/ml
[19] = peptide treatment concentration 6 μg/ml
[20] = peptide treatment concentration 8 μg/ml
[21] = peptide treatment concentration 16 μg/ml
[22] = peptide treatment concentration 32 μg/ml
[23] = peptide treatment concentration 64 μg/ml

CC[C@H](C)[C@H](NC(=O)[C@H](CCCCN)NC(=O)[C@H](Cc1c[nH]c2ccccc12)NC(=O)[C@@H](N)CCCNC(=N)N)C(=O)N[C@@H](Cc1ccccc1)C(=O)N[C@@H](CCCCN)C(=O)N[C@@H](CCCCN)C(=O)N[C@H](C(=O)N1CCC[C@H]1C(=O)N[C@@H](CCCCN)C(=O)N[C@@H](CC(C)C)C(=O)N[C@@H](CC(C)C)C(=O)N[C@@H](Cc1c[nH]cn1)C(=O)N[C@@H](CCC(=O)O)C(=O)N[C@@H](C)C(=O)N[C@@H](CCCCN)C(=O)N[C@@H](CCCCN)C(=O)N[C@@H](Cc1c[nH]c2ccccc12)C(N)=O)[C@@H](C)CC [PapMA-13, RWK IFK KIP KLL HEA KKW-NH2] (H-RWKIFKKIPKLLHEAKKW-NH2; N-terminus assumed)
0.25 mg/L: Antibiotic MIC, Erythromycin (E. coli [3]; erythromycin combined with peptide at 8 μg/ml) | Peptide MIC during treatment with antibiotic (A. baumannii; [14]) | Peptide MIC during treatment with antibiotic (A. baumannii; vancomycin […] (Conc./MIC 1/4))
32 mg/L: Linezolid MIC during combined treatment with peptide (MDRAB 12035 [5]; [17])
4 mg/L: Antibiotic MIC, Linezolid (E. coli [3]; linezolid combined with peptide at 6 μg/ml) | Peptide MIC during treatment with erythromycin (MDRAB 12035 [4]; [8]) | Peptide MIC during treatment with antibiotic (A. baumannii; [8]) | Erythromycin MIC during combined treatment with peptide (MDRAB 12035 [5]; [18]) | Peptide MIC during treatment with antibiotic (MDREC 1229 [6]; [12]) | Peptide MIC during treatment with antibiotic (MDREC 1229 [6]; vancomycin […] (Conc./MIC 1/4))
0.5 mg/L: Erythromycin MIC during combined treatment with peptide (MDRAB 12035 [5]; [20])
16 mg/L: Minimal inhibitory concentration MIC (MDREC 1229 [1]) | Peptide MIC, peptide alone (MDREC 1229 [1]) | Minimal inhibitory concentration MIC (E. coli [2]) | Antibiotic MIC, Erythromycin (E. coli [3]; erythromycin combined with peptide at 2 μg/ml) | Antibiotic MIC, Vancomycin (E. coli [3]; vancomycin combined with peptide at 4 μg/ml) | Minimal inhibitory concentration MIC (MDRST 8007) | Minimal inhibitory concentration MIC (MDREC 1238) | Minimal inhibitory concentration MIC (MDRST 8009) | Erythromycin MIC during combined treatment with peptide (MDRAB 12035 [5]; [16]) | Linezolid MIC during combined treatment with peptide (MDRAB 12035 [5]; [18]) | Vancomycin MIC during combined treatment with peptide (MDRAB 12035 [5]; [18]) | Minimal inhibitory concentration MIC (MDRAB 12036)
0 mg/L: Antibiotic MIC, Erythromycin (E. coli [3]; erythromycin combined with peptide at 16 μg/ml) | Antibiotic MIC, Erythromycin (E. coli [3]; erythromycin combined with peptide at 32 μg/ml) | Antibiotic MIC, Erythromycin (E. coli [3]; erythromycin combined with peptide at 64 μg/ml) | Antibiotic MIC, Linezolid (E. coli [3]; linezolid combined with peptide at 16 μg/ml) | Antibiotic MIC, Linezolid (E. coli [3]; linezolid combined with peptide at 32 μg/ml) | Antibiotic MIC, Linezolid (E. coli [3]; linezolid combined with peptide at 64 μg/ml) | Antibiotic MIC, Vancomycin (E. coli [3]; vancomycin combined with peptide at 16 μg/ml) | Antibiotic MIC, Vancomycin (E. coli [3]; vancomycin combined with peptide at 32 μg/ml) | Antibiotic MIC, Vancomycin (E. coli [3]; vancomycin combined with peptide at 64 μg/ml) | Peptide MIC during treatment with erythromycin (MDRAB 12035 [4]; [11]) | Peptide MIC during treatment with linezolid (MDRAB 12035 [4]; [13]) | Peptide MIC during treatment with antibiotic (A. baumannii; [11]) | Peptide MIC during treatment with antibiotic (A. baumannii; linezolid […] (Conc./MIC 1)) | Peptide MIC during treatment with antibiotic (A. baumannii; [15]) | Erythromycin MIC during combined treatment with peptide (MDRAB 12035 [5]; [21]) | Linezolid MIC during combined treatment with peptide (MDRAB 12035 [5]; [21]) | Vancomycin MIC during combined treatment with peptide (MDRAB 12035 [5]; [21]) | Erythromycin MIC during combined treatment with peptide (MDRAB 12035 [5]; [22]) | Linezolid MIC during combined treatment with peptide (MDRAB 12035 [5]; [22]) | Vancomycin MIC during combined treatment with peptide (MDRAB 12035 [5]; [22]) | Erythromycin MIC during combined treatment with peptide (MDRAB 12035 [5]; [23]) | Linezolid MIC during combined treatment with peptide (MDRAB 12035 [5]; [23]) | Vancomycin MIC during combined treatment with peptide (MDRAB 12035 [5]; [23]) | Peptide MIC during treatment with antibiotic (MDREC 1229 [6]; erythromycin […] (Conc./MIC 1)) | Peptide MIC during treatment with antibiotic (MDREC 1229 [6]; [13]) | Peptide MIC (E. coli [7]; with Erythromycin […] (Conc./MIC 1)) | Peptide MIC (E. coli [7]; with Linezolid […] (Conc./MIC 1)) | Peptide MIC (E. coli [7]; with Vancomycin 1024 μg/ml (Conc./MIC 1))
higher level than the PapMA-1 peptide: Synergistic effect of antibacterial activity with existing antibiotics compared with PapMA-1 (E. coli [3]; E. coli and MDREC1229)
64 mg/L: Antibiotic MIC, Erythromycin (E. coli [3]; erythromycin combined with peptide at 1 μg/ml) | Antibiotic MIC, Linezolid (E. coli [3]; linezolid combined with peptide at 2 μg/ml) | Antibiotic MIC, Vancomycin (E. coli [3]; vancomycin combined with peptide at 2 μg/ml) | Vancomycin MIC during combined treatment with peptide (MDRAB 12035 [5]; [17])
>128 mg/L: Minimal inhibitory concentration MIC (S. epidermidis) | Minimal inhibitory concentration MIC (B. subtilis) | Antibiotic MIC, Linezolid (E. coli [3]; linezolid combined with peptide at 1 μg/ml) | Antibiotic MIC, Vancomycin (E. coli [3]; vancomycin combined with peptide at 1 μg/ml) | Minimal inhibitory concentration MIC (MRSA 3114) | Minimal inhibitory concentration MIC (MRSA 3126)
128 mg/L: Minimal inhibitory concentration MIC (P. aeruginosa) | Minimal inhibitory concentration MIC (MDRPA 2002) | Minimal inhibitory concentration MIC (MDRPA 2003) | Linezolid MIC during combined treatment with peptide (MDRAB 12035 [5]; [16]) | Vancomycin MIC during combined treatment with peptide (MDRAB 12035 [5]; [16])
2 mg/L: Antibiotic MIC, Erythromycin (E. coli [3]; erythromycin combined with peptide at 4 μg/ml) | Antibiotic MIC, Vancomycin (E. coli [3]; vancomycin combined with peptide at 8 μg/ml) | Peptide MIC during treatment with erythromycin (MDRAB 12035 [4]; [9]) | Peptide MIC during treatment with linezolid (MDRAB 12035 [4]; [12]) | Peptide MIC during treatment with vancomycin (MDRAB 12035 [4]; vancomycin […] (Conc./MIC 1/8)) | Peptide MIC during treatment with antibiotic (A. baumannii; [9]) | Peptide MIC during treatment with antibiotic (A. baumannii; linezolid 32 μg/ml (Conc./MIC 1/8)) | Peptide MIC during treatment with antibiotic (A. baumannii; linezolid 64 μg/ml (Conc./MIC 1/4)) | Vancomycin MIC during combined treatment with peptide (MDRAB 12035 [5]; [19]) | Linezolid MIC during combined treatment with peptide (MDRAB 12035 [5]; [20]) | Peptide MIC during treatment with antibiotic (MDREC 1229 [6]; erythromycin 32 μg/ml (Conc./MIC 1/8)) | Peptide MIC during treatment with antibiotic (MDREC 1229 [6]; erythromycin 64 μg/ml (Conc./MIC 1/4)) | Peptide MIC during treatment with antibiotic (MDREC 1229 [6]; erythromycin […] (Conc./MIC 1/2)) | Peptide MIC during treatment with antibiotic (MDREC 1229 [6]; linezolid […] (Conc./MIC 1/2)) | Peptide MIC during treatment with antibiotic (MDREC 1229 [6]; linezolid […] (Conc./MIC 1/4)) | Peptide MIC during treatment with antibiotic (MDREC 1229 [6]; [14])
8 mg/L: Antibiotic MIC, Linezolid (E. coli [3]; linezolid combined with peptide at 4 μg/ml) | Antibiotic MIC, Vancomycin (E. coli [3]; vancomycin combined with peptide at 6 μg/ml) | Erythromycin MIC during combined treatment with peptide (MDRAB 12035 [5]; [17]) | Linezolid MIC during combined treatment with peptide (MDRAB 12035 [5]; [19]) | Peptide MIC during treatment with antibiotic (MDREC 1229 [6]; vancomycin […] (Conc./MIC 1/8))
1 mg/L: Antibiotic MIC, Erythromycin (E. coli [3]; erythromycin combined with peptide at 6 μg/ml) | Antibiotic MIC, Linezolid (E. coli [3]; linezolid combined with peptide at 8 μg/ml) | Peptide MIC during treatment with erythromycin (MDRAB 12035 [4]; [10]) | Peptide MIC during treatment with linezolid (MDRAB 12035 [4]; linezolid […] (Conc./MIC 1/2)) | Peptide MIC during treatment with linezolid (MDRAB 12035 [4]; linezolid […] (Conc./MIC 1/4)) | Peptide MIC during treatment with vancomycin (MDRAB 12035 [4]; [14]) | Peptide MIC during treatment with vancomycin (MDRAB 12035 [4]; [15]) | Peptide MIC during treatment with vancomycin (MDRAB 12035 [4]; vancomycin […] (Conc./MIC 1/4)) | Peptide MIC during treatment with antibiotic (A. baumannii; [10]) | Peptide MIC during treatment with antibiotic (A. baumannii; linezolid […] (Conc./MIC 1/2)) | Peptide MIC during treatment with antibiotic (A. baumannii; vancomycin […] (Conc./MIC 1/8)) | Erythromycin MIC during combined treatment with peptide (MDRAB 12035 [5]; [19]) | Vancomycin MIC during combined treatment with peptide (MDRAB 12035 [5]; [20]) | Peptide MIC during treatment with antibiotic (MDREC 1229 [6]; [15])

— patent US11214594B2, “Antimicrobial peptide having synergistic antibacterial effect with antibiotics on multidrug resistant bacteria, and use thereof” (priority 2016, dated 2022)
